From the supplement of paper PMC10307832

How the values were obtained:
Test in all cases: relative viability (nuclei count vs DMSO), 5 days (fraction); higher = more cells survive
[1] = compound: CC1=NN=C(O1)C2=NN=C(C=C2)N3CCC(CC3)OC4=C(C=CC(=C4)F)Cl
Outline: (§1)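 After an overnight hold at 37 °C, lung cancer cell lines in 1536-well plates were pinned with five library-drug doses (not always all listed), each √10 from the next, on vehicle-anchored plates. The cells stayed 5 days without fresh medium, then a one-step fix, permeabilisation and Hoechst stain preceded 4× imaging and MetaXpress nuclear counts. A plate passed only with control CV under 25% and at least one doubling. Viability is the median, over plates, of treated-well nuclei relative to vehicle-well nuclei.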

Tosedostat = compound: CC(C)C[C@@H](C(=O)N[C@H](C(=O)OC1CCCC1)c1ccccc1)[C@H](O)C(=O)NO [Tosedostat]
Outline: as §1

[2] = compound: CC1=NN=C(O1)C2=NN=C(C=C2)N3CCC(CC3)OC4=C(C=CC(=C4)F)Cl + Nc1nc2[nH]cc(CCc3ccc(C(=O)N[C@@H](CCC(=O)O)C(=O)O)cc3)c2c(=O)[nH]1 [Pemetrexed] (partner 0.2 µM)
Outline: (§2)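 Dosing by pin tool came one day after lung cancer cell lines were seeded in 1536-well plates, using either one drug or a fixed anchor-drug dose plus five library-drug doses (not always all listed) in √10 steps. After 5 days, nuclei were counted on 4× images. Relative viability is treated-well nuclei count divided by vehicle-well nuclei count, and values are medians of duplicate plates.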

Tosedostat + OSI-027 = compound: CC(C)C[C@@H](C(=O)N[C@H](C(=O)OC1CCCC1)c1ccccc1)[C@H](O)C(=O)NO [Tosedostat] + COc1cccc2cc(-c3nc([C@H]4CC[C@H](C(=O)O)CC4)n4ncnc(N)c34)[nH]c12 [OSI-027] (partner 0.5 µM)
Outline: as §2

Row | Cell Line | relative viability ([1]; 0.253 µM) | relative viability ([1]; 0.8 µM) | relative viability ([1]; 2.53 µM) | relative viability ([1]; 8 µM) | relative viability (Tosedostat; 0.02 µM) | relative viability (Tosedostat; 0.06325 µM) | relative viability (Tosedostat; 0.2 µM) | relative viability (Tosedostat; 0.6325 µM) | relative viability (Tosedostat; 2 µM) | relative viability ([2]; first compound 0.253 µM) | relative viability ([2]; first compound 0.8 µM) | relative viability ([2]; first compound 2.53 µM) | relative viability ([2]; first compound 8 µM) | relative viability (Tosedostat + OSI-027; first compound 0.02 µM) | relative viability (Tosedostat + OSI-027; first compound 0.06325 µM) | relative viability (Tosedostat + OSI-027; first compound 0.2 µM) | relative viability (Tosedostat + OSI-027; first compound 0.6325 µM) | relative viability (Tosedostat + OSI-027; first compound 2 µM)
1 | HCC-366 | 0.484 | 0.469 | 0.508 | 0.482 | 1.02 | 1.01 | 1.03 | 0.979 | 1.01 | 0.0851 | 0.121 | 0.174 | 0.15 | 1.15 | 0.806 | 1.01 | 0.643 | 0.594
2 | HCC-827 | 0.47 | 0.297 | 0.455 | 0.443 | 1.03 | 1.06 | 1.1 | 0.957 | 1.01 | 0.257 | 0.244 | 0.246 | 0.224 | 0.701 | 0.728 | 0.773 | 0.526 | 0.644
3 | HOP-62 | 0.77 | 0.529 | 0.707 | 0.587 | 1.12 | 0.977 | 0.932 | 0.945 | 0.9 | 0.315 | 0.318 | 0.231 | 0.17 | 0.836 | 0.813 | 0.885 | 0.671 | 0.664
4 | IA-LM | 0.169 | 0.142 | 0.171 | 0.155 | 1.07 | 0.963 | 0.918 | 0.858 | 0.769 |  |  |  |  |  |  |  |  | 
5 | LC-2-ad | 0.407 | 0.431 | 0.44 | 0.409 | 1.13 | 1.02 | 0.963 | 0.871 | 0.818 | 0.267 | 0.27 | 0.282 | 0.239 | 1.03 | 0.756 | 0.758 | 0.698 | 0.645
6 | LCLC-97TM1 | 0.795 |  | 0.564 | 0.548 | 1.12 | 0.973 | 0.876 | 0.83 | 0.621 | 0.184 |  | 0.199 | 0.184 | 0.603 | 0.451 | 0.442 | 0.418 | 0.497
7 | LCLC-103H | 0.604 | 0.71 | 0.705 | 0.632 | 1.06 | 0.95 | 1 | 1.11 | 1.07 | 0.435 | 0.418 | 0.403 | 0.409 | 0.553 | 0.417 | 0.491 | 0.502 | 0.472
8 | LK-2 | 0.965 | 0.823 | 1.01 | 1.02 | 1.13 | 1.11 | 0.926 | 0.954 | 1.13 | 0.318 | 0.256 | 0.377 | 0.255 | 0.174 | 0.214 | 0.239 | 0.219 | 0.199
9 | LOU-NH91 |  | 0.866 | 0.908 | 0.957 | 1.04 | 1.01 | 0.937 | 0.919 | 0.86 |  | 0.386 | 0.394 | 0.424 | 0.735 | 0.822 | 0.703 | 0.676 | 0.616
10 | LU99A | 1.05 | 0.783 | 0.721 | 0.758 | 1.04 | 1.11 | 0.99 | 0.857 | 0.813 | 0.149 | 0.18 | 0.162 | 0.164 | 0.324 | 0.286 | 0.292 | 0.312 | 0.249
11 | LXF-289 | 0.712 | 0.616 | 0.737 | 0.653 | 1.08 | 0.987 | 0.992 | 0.993 | 1.05 | 0.768 | 0.594 | 0.767 | 0.726 | 0.904 | 0.799 | 0.808 | 0.692 | 0.561
12 | NCI-H23 | 0.919 | 0.532 | 0.835 | 0.815 | 1.14 | 0.907 | 0.899 | 0.744 | 0.541 | 0.669 | 0.543 | 0.698 | 0.622 | 0.702 | 0.599 | 0.683 | 0.494 | 0.372
13 | NCI-H322M | 0.929 | 0.881 | 1.02 | 0.819 | 0.898 | 0.964 | 0.877 | 0.762 | 0.834 | 0.629 | 0.381 | 0.578 | 0.592 | 0.606 | 0.571 | 0.567 | 0.556 | 0.509
14 | NCI-H358 | 0.628 | 0.563 | 0.589 | 0.49 | 1.11 | 0.866 | 0.782 | 0.452 | 0.425 | 0.148 | 0.167 | 0.139 | 0.162 | 0.925 | 0.745 | 0.362 | 0.349 | 0.329
15 | NCI-H441 | 0.672 | 0.388 | 0.595 | 0.519 | 1.12 | 0.92 | 0.749 | 0.69 | 0.731 | 0.295 | 0.265 | 0.223 | 0.258 | 0.609 | 0.593 | 0.632 | 0.433 | 0.437
16 | NCI-H460 | 0.273 | 0.306 | 0.282 | 0.284 | 1.02 | 0.994 | 0.99 | 0.974 | 0.989 | 0.0764 | 0.0663 | 0.0645 | 0.071 | 0.817 | 0.604 | 0.595 | 0.647 | 0.679
17 | NCI-H727 | 0.817 | 0.728 | 0.981 | 0.785 | 0.914 | 0.899 | 0.696 | 0.819 | 0.95 |  |  |  |  | 0.583 | 0.636 |  | 0.492 | 0.419
18 | NCI-H1299 | 0.961 | 0.9 | 0.892 | 0.852 | 1.09 | 0.995 | 0.985 | 0.968 | 0.939 |  |  |  |  |  |  |  |  | 
19 | NCI-H1623 | 0.897 | 0.734 | 0.918 | 0.926 | 1.06 | 0.895 | 0.907 | 0.798 | 0.965 |  |  |  |  | 0.433 | 0.429 | 0.456 | 0.462 | 0.453
20 | NCI-H1703 | 0.786 | 0.873 | 0.933 | 0.829 | 0.995 | 0.789 | 0.763 | 0.572 | 0.726 |  |  |  |  |  |  |  |  | 
